# Measured values: ChEMBL document CHEMBL1132466, “Asymmetric synthesis of 9-alkyl-2-benzyl-6,7-benzomorphans: characterization as novel sigma receptor ligands” (J Med Chem, 1999)
# Assay: Affinity against Sigma opioid receptor type 1 using [3H](+)-pentazocine in guinea pig brain membranes
structure (smiles),measurement,value
C[C@@H]1[C@@H]2Cc3ccc(O)cc3[C@@]1(C)CCN2Cc1ccccc1,Ki,0.67 nM
